Here are results for one molecule from PMC13095408, “DBeQ derivative targets vacuolar protein sorting 4 functions in cancer cells and suppresses tumor growth in mice” (The Journal of Pharmacology and Experimental Therapeutics, 2025).

The structures appear in SMILES notation.

Data set [1] deals with GFP-CHMP4B-expressing U2OS cells. Briefly: GFP-CHMP4B accumulation cell-based assay (high-content microscopy). The essentials:
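GFP-CHMP4B U2OS cells were cultured overnight, stained, then treated in SM with compounds (0.1% DMSO or 0.1% DMSO/0.1% ethanol vehicle final). High-content imaging used a 20× NA .70 objective at set intervals, ≥300 cells/well over 3 fields/well.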

The test system of a further data set is U2OS cells. Briefly: Live-cell quantification of YOYO-3-positive dead cells. In kind it is cell-based. As to the method:
To measure caspase activity, cells cultured in white opaque-bottom 384-well plates were incubated in the presence or absence of 1 μg/mL Dox for 24 hours. Caspase-Glo 8 or 3/7 reagent was then added 1:1 and allowed to incubate for 90 minutes at RT followed by luminescence measurement using the CLARIOstar microplate reader (BMG LABTECH). Signals had background luminescence subtracted and then normalized to the respective Dox-untreated i-GFP-expressing parental controls to obtain relative CASP8-like LETDase or CASP3/7-like DEVDase activities. For live-cell quantification, the cells seeded on black clear-bottom 96-well plates were incubated with the indicated compounds (0.1% to 0.3% DMSO final) in the presence of 100 nM YOYO-3, a cell-impermeant DNA-binding fluorescent probe that stains membrane integrity-impaired, dead cells. […] Phase and fluorescence images were obtained at the indicated intervals using the IncuCyte S3 Live-Cell Analysis System (Essen BioScience; 10× objective) and then analyzed using the Cell-by-Cell Analysis module (Essen BioScience; 9600-0031) of IncuCyte S3 Software (Essen BioScience; Version 2019B Rev2). To quantify the percentage of dead GFP-expressing cells, the GFP and YOYO-3 double-positive cell population was divided by the total GFP-positive cell population.

Data set [2] in a line: Human liver microsomal stability. The format is in vitro ADME. The settings on record: Human liver microsomes, 1 μM of compound. As for the experimental part:
(§1) All in vitro absorption, distribution, metabolism, and excretion (ADME) studies were conducted by BioDuro-Sundia. […] Caco-2 permeability, human liver microsomal stability, and human plasma protein binding assays as well as liquid chromatography-mass spectrometry/mass spectrometry analyses were performed following standard protocols previously described in detail ([Kazakova et al, 2023]).

Another data set deals with T1, VPS4B (Homo sapiens, UniProt O75351).
T1 sequence (O75351 1-444): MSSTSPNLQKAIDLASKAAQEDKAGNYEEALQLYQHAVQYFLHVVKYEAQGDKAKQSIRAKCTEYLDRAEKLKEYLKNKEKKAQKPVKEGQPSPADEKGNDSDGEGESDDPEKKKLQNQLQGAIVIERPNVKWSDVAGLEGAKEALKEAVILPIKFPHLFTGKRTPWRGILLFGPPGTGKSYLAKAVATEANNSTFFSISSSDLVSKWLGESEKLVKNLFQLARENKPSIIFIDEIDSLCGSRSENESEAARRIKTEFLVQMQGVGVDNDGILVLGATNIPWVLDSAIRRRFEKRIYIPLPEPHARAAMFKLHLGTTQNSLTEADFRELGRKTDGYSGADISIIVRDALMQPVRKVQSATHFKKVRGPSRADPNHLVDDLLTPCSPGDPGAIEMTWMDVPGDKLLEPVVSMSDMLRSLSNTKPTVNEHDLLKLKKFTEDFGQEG
Put plainly: VPS4B cellular thermal shift assay (CETSA). The format is cell-based. More on the design: endogenous in cells; host or cells: U2OS. Particulars: 2 μM 4-107, 1 hour, starved U2OS cells. As for the experimental part:
The VPS4B CETSA was performed as previously described with modification ([Jafari et al, 2014]). In 10-cm dishes, near-confluent U2OS cells were rinsed with 1× DPBS and treated with the indicated compounds in acclimatized SM for 1 hour at 37 °C (0.1% DMSO). Cells were trypsinized, pelleted at 300 × g for 5 minutes, and washed with 1× PBS. After repeat pelleting at 300 × g for 5 minutes, the cells were resuspended in 1× PBS with protease inhibitor cocktail (1:250) and aliquoted into PCR strips with 20 μL per tube. PCR strips for each treatment were heated on a temperature gradient for 3 minutes using a thermal cycler (Bio-Rad Laboratories), followed by incubation at RT for 3 minutes. […] To normalize protein loading for SDS-PAGE, the soluble protein concentration of each 37 °C sample was quantified via the Pierce BCA assay ([…]), and a volume equal to 10 μg of protein was used for all samples from the same treatment. […] Signals were acquired with the Odyssey CLx (LI-COR) and quantified via densitometry using Image Studio version 6 (LI-COR). The remaining VPS4B levels were calculated by first obtaining the ratio of VPS4B:ACTB band intensities of each sample and then normalizing these ratios to that of the respective 37 °C sample. […]

For the next data set, the system named is 9464D s.c. tumors. Briefly: 9464D syngeneic mouse model of neuroblastoma. The format is in vivo. The settings on record: 5 mg/kg/day, i.p. As for the experimental part: To establish a syngeneic tumor mouse model, 9464D cells were resuspended in 50% Matrigel Matrix in 1× PBS at a concentration of […] and a total of 0.1 mL of this mixture (1 × 10^6 cells) was subcutaneously injected into the flank of each of the 6 to 8-week-old B6 mice (n = 19; 12 M, 7 F). Fourteen days after engraftment, mice began daily intraperitoneal administration of either vehicle (n = 9; 6 M, 3 F) or 5 mg/kg 4-107 (n = 10; 6 M, 4 F). Mouse tumor volume was measured weekly, then every 1–3 days once vehicle-treated tumors reached 1000–2000 mm^3. Tumor volume was calculated as πLW^2/6 using length (L) and width (W) caliper measurements. Mouse body weight was measured daily. Humane endpoints were defined as tumor volume reaching 4000 mm^3 or mice reaching the aforementioned toxicity endpoints, at which point the affected mice were euthanized. The experimental endpoint was determined as the time when the majority of tumors from the control group reached 4000 mm^3.

Data set [3] can be described thus: Human plasma protein binding. The settings on record: 5 μM of compound. In kind it is in vitro ADME. As to the method: as §1

By fraction unbound is commonly meant free concentration divided by total concentration. Low readings indicate little free substance, high ones much free substance. With `COc1cccc2c(NCc3ccccc3)nc(NCc3ccccc3)nc12` [Compound 4-107, N^2,N^4-dibenzyl-8-methoxyquinazoline-2,4-diamine], the “GFP-CHMP4B (% 4-107)” value is given as 100.00 ± 17.20 % 4-107 in data set [1] (screened at 1 µM, mean ± S.D., Supplemental Table 2) and 100.00 ± 17.20 % 4-107 in data set [1] (screened at 1 μM, starvation media, 1 hour, foci intensity per cell normalized to 4-107, mean ± SD, Table 1, listed as 1). Besides, the “cell death (YOYO-3-positive dead cells)” value in the data set on U2OS cells (2 μM 4-107, WT U2OS cells) is given as “induced cell death in a time-dependent manner”. Also, the “enhanced temporal sensitivity of VPS4A- and VPS4B-deficient cells compared with WT cells” value in the data set on U2OS cells (2 μM 4-107, crVPS4A, crVPS4B vs WT U2OS) is given as “about 12 hours”. For the same molecule, the “Liver microsomal stability, remaining after 1 h” value in data set [2] came out at 71.83%. Moreover, the microsomal CLint at 1 μM in data set [2] (read-out: In vitro intrinsic clearance, Clint) was found to be 11.8 µL/min/mg. Also, the half-life at 1 μM in data set [2] (read-out: Liver microsomal stability, T1/2) stood at 1.95 h. The “decrease of VPS4B Tagg” value on VPS4B is “approximately 3 °C”. In the data set with 9464D s.c. tumors (from day 14 after engraftment, B6 mice), the tumor growth entry was “significantly reduced tumor growth”. In addition, the “mice that tolerated treatment” value in the data set with 9464D s.c. tumors (tumor-bearing B6 mice) was 7 of 10. The same molecule gave a fraction unbound at 5 μM in data set [3] of 0.0007.
